# Experimental data: US20250129184A1, “TARGETED ANTICOAGULANT” (Northwestern University, priority 2016, published 2025)
# Where no end group is shown, it is not given here.
# Key:
# [1] = test system: Pig whole blood; assay: whole blood clotting assay on fibrin coated plates; type: cell-based; settings: fibrin coated 96-well plates pre-treated 30 minutes, washed three times with PBS; re-calcified blood; absorbance 405 nm
# Experimental: During the development of embodiments of the technology provided herein, experiments were conducted to test the anti-coagulant activity of embodiments of the heparin-CREKA compounds described herein. In particular, the heparin-CREKA compounds were evaluated by a whole blood clotting assay and a platelet adhesion assay (FIGS. 4 and 5). Pig whole blood was collected into acid citrate dextrose (ACD) anticoagulant. Fibrin coated 96-well plates were pre-treated with phosphate-buffered saline (PBS), heparin, or heparin-CREKA for 30 minutes at room temperature, then followed with three washes with PBS prior to the test. The wash removes unbound heparin or heparin-CREKA from the surfaces. Control experiments included tests of tissue culture treated and untreated polystyrene 96 well plates. […] The coagulation process was monitored at each selected time point by adding 150 μl of deionized water into each well to lyse the unclotted red blood cells. The lysate was then transferred into a new plate and the absorbance was measured at a wavelength of 405 nm. Higher absorbance represents more unclotted red blood cells and better anti-coagulation effect. The anti-coagulant effect of heparin-CREKA was detected up to 60 minutes while the effect of the conventional heparin was undetectable 20 minutes after contacting the blood (FIG. 4).
# [2] = test system: platelets; assay: platelet adhesion assay using platelet-rich plasma on fibrin surfaces; type: cell-based; settings: compared to bare fibrin surface; at a lower concentration than heparin; PRP 1:10, 37° C., 60 minutes; LDH readout
# Experimental: Next, during the development of embodiments of the technology provided herein, experiments were conducted to test the anticoagulation activity of embodiments of the heparin-CREKA compounds described herein. In particular, a platelet adhesion assay was performed using platelet-rich plasma (PRP). Surfaces were treated with various concentrations of heparin or heparin-CREKA as described above. PRP, diluted 1:10 in PBS, was incubated at 37° C. for 60 minutes with the samples and gently rinsed with warm PBS. The number of adherent platelets was determined by detecting the amount of lactate dehydrogenase (LDH) present after cell lysis. Briefly, adherent platelets were lysed by incubation with 2% Triton-PSB buffer for 30 minutes at 37° C. A colorimetric substrate for LDH was added and incubated for 20 minutes at 37° C. The optical density was measured at a wavelength of 490 nm. A calibration curve was generated from a series of serial dilutions of a known platelet concentration and used to determine the number of adhered platelets.
# [3] = test system: ePTFE graft in abdominal aorta; assay: rat abdominal aorta interposition model with ePTFE graft; type: in vivo, Sprague Dawley rats; settings: two intravenous doses, 24 hours; middle_3 and distal segments
# Experimental: During the development of embodiments of the technology provided herein, experiments were conducted to evaluate the in vivo performance of the heparin-CREKA relative to conventional clinically used heparin. In particular, heparin-CREKA was studied in a rat abdominal aorta interposition model. Briefly, male Sprague Dawley rats (200-500 g) were anesthetized by a ketamine/xylazine cocktail. The abdomen of the anesthetized rat was entered through a midline incision. The abdominal aorta was exposed (FIG. 7, Panel A), clamped in both proximal and distal regions using micro-vessel clips, and then excised between the clamps (FIG. 7, Panel B). A segment (e.g., approximately 1 cm in length; 1.524±0.05 mm in diameter) of expanded polytetrafluoroethylene (ePTFE) was used as a graft. The graft was connected to the abdominal aorta using an end-to-end anastomosis technique with interrupted stitches at each end (FIG. 7, Panel C). Following reperfusion of blood flow through the graft, one dose of anti-coagulant (heparin or heparin-CREKA) was given systemically via intravenous injection. The incision was then closed in layers. 24 hours after the initial implantation surgeries and immediately prior to sacrifice of the test […], a second dose of […] (heparin or heparin-CREKA) was administered systemically via intravenous injection. […]
# [4] = test system: graft site; assay: in vivo dosing studies, anti-coagulant effect at the graft site by imaging
# Experimental: During the development of embodiments of the technology provided herein, experiments were conducted to study the in vivo binding and pharmacology response of the embodiments of heparin-CREKA. In particular, data were collected from three animal studies in which the dosing period was varied. Study 1—animals were scarified 24 hours after the initial surgery and 2 doses of heparin-CREKA or control heparin-CERAK were administrated by intravenous injection during the 24 hour period. The first dose was administered immediately after the surgery (e.g., after re-establishing blood flow at the graft area). The second dose was administered 6 hours prior to euthanizing the animal. Imaging data were collected and analyzed to evaluate the anti-coagulant effect of heparin-CREKA at the graft site. […] Study 2—animals were kept alive for 7 days after surgery and one dose of heparin-CREKA or control heparin-CERAK was administrated by intravenous injection immediately after the surgery (e.g., after re-establishing blood flow at the graft area). In contrast to Study 1, no additional dose was given after the first dose. Imaging data were collected and analyzed to evaluate the anti-coagulant effect of heparin-CREKA at the graft site. […] Study 3—animals were kept alive for 7 days after surgery and two doses of heparin-CREKA or control heparin-CERAK were administrated by intravenous injection during the 7 day period. The first dose was administered immediately after the surgery (e.g., after re-establishing blood flow at the graft area). The second dose was administered 6 hours before euthanizing the animal. Imaging data were collected and analyzed to evaluate the anti-coagulant effect of heparin-CREKA at the graft site.
# [5] = test system: fibrin; assay: peptide binding to protein-coated polystyrene surfaces (fibrin); settings: biotinylated peptide vs scrambled CERAK; protein 10 μg/cm^2; overnight; fluorophore-conjugated streptavidin
# Experimental: (§1) During the development of embodiments of the technology provided herein, experiments were conducted to assess the binding specificity of the CREKA peptides towards fibrin and non-target components. […] Proteins were applied to uncoated polystyrene surfaces at 10 μg/cm^2 and washed with PBS three times to remove unbound protein. A range of concentrations of biotinylated CREKA and biotinylated CERAK were incubated with the treated surfaces overnight, then washed three times the next day to remove the unbound peptides. The peptides remaining on the protein-coated surfaces were quantified using fluorophore-conjugated streptavidin. […] These properties of the heparin-CREKA compounds indicate that heparin-CREKA is appropriate for administration by intravenous injection.
# [6] = target: albumin (Homo sapiens, UniProt P02768); assay: peptide binding to protein-coated polystyrene surfaces (albumin); settings: biotinylated peptide; common blood plasma protein
# Experimental: as §1
# [7] = target: T1, fibrinogen (Homo sapiens, UniProt P02671+P02675+P02679); assay: peptide binding to protein-coated polystyrene surfaces (fibrinogen); settings: biotinylated peptide; common blood plasma protein
# T1 sequence (P02671 20-629 limits assumed): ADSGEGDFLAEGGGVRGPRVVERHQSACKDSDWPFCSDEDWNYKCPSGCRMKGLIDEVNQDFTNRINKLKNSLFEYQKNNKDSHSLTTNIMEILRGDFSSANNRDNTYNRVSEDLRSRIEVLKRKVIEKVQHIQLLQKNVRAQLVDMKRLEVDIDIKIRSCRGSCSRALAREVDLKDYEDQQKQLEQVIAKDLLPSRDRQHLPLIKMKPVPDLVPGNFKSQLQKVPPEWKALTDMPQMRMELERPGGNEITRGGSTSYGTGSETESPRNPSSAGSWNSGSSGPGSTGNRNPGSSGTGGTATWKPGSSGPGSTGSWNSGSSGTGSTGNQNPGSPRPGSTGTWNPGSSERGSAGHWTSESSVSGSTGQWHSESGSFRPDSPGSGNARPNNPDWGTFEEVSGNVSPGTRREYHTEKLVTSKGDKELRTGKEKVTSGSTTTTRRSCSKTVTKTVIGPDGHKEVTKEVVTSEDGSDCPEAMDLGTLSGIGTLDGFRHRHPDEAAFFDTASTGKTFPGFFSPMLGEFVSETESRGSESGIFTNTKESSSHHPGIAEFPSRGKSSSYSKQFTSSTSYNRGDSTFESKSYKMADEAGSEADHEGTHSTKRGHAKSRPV
# T1 sequence (P02675 31-491): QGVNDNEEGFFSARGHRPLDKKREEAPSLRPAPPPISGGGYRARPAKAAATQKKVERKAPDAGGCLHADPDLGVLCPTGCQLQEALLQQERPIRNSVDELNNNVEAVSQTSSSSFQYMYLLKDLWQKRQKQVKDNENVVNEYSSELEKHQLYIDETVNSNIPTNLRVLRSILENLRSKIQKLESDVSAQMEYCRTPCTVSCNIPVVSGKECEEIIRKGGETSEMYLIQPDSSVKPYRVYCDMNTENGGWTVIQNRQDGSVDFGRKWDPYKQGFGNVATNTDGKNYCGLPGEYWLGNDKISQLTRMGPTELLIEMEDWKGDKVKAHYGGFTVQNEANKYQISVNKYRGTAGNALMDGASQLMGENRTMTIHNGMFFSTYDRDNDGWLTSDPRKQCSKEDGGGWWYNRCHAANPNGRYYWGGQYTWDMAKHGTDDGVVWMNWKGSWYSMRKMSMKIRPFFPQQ
# T1 sequence (P02679 27-433 limits assumed): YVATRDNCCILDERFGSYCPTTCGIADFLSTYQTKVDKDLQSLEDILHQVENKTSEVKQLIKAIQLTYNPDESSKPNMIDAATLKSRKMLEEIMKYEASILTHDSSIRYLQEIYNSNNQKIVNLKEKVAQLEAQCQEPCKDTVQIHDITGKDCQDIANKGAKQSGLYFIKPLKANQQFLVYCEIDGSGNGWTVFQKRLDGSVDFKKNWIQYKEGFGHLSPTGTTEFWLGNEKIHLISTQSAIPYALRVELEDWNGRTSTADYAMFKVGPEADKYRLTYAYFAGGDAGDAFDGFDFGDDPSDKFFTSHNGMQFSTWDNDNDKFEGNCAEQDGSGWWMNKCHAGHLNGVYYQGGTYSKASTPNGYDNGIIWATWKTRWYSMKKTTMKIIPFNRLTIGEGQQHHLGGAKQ
# Experimental: as §1
Substance,time for which the anti-coagulant effect was detected after contacting the blood [1],amount of adhered platelets [2],clotting in the grafts (histology) [3],"anti-coagulant effect at the graft site relative to heparin-CERAK ([4]; Study 1: 24 hours, 2 intravenous doses (after surgery and 6 hours prior to euthanizing))","anti-coagulant effect at the graft site relative to heparin-CERAK ([4]; Study 2: 7 days, one intravenous dose immediately after surgery)","anti-coagulant effect at the graft site relative to heparin-CERAK ([4]; Study 3: 7 days, two intravenous doses (after surgery and 6 hours before euthanizing))",CREKA-fibrin binding [5],binding to albumin [6],binding to fibrinogen [7]
"heparin-CREKA: heparin covalently linked through a BMPH linker to the fibrin binding peptide Cys-Arg-Glu-Lys-Ala (CREKA) (also: heparin linked via BMPH linker, site not given here)",up to 60 minutes,significantly reduced,remained clean,significant improvement,only a very small difference,significant improvement,–,–,–
"Cys-Arg-Glu-Lys-Ala (CREKA; also: biotinylated, site not given here) [tested in biotinylated form]",–,–,–,–,–,–,highly specific,very weakly,very weakly
heparin [reference compound],< 20 min,–,major clotting,–,–,–,–,–,–
